# Patent US20200077648A1, “PHENOXYPHENYLAMIDINES AND THE USE THEREOF AS FUNGICIDES” (priority 2016, published 2020)
# Experiment: Log P measurement by HPLC on reversed phase columns (EEC directive 79/831 Annex V.A8; methods [a], [b], [c])
# Assay type: physicochemical
# Method: If more than one Log P value is available within the same method, all the values are given and separated by “+”. […] Lambda-max-values were determined using UV-spectra from 200 nm to 400 nm and the peak values of the chromatographic signals.
# [1] = method [a]: LC-UV, acidic range, 0.1% formic acid in water and acetonitrile as eluent
# [2] = method [b]: LC-UV, neutral range, 0.001 molar ammonium acetate solution in water and acetonitrile as eluent
# [3] = method [a]: LC-UV, acidic range, 0.1% formic acid in water and acetonitrile as eluent (linear gradient 10% to 95% acetonitrile)
LogP [3],Structure (SMILES),LogP [1],other results
1.29^[a],CCN(C)C=Nc1cc(C)c(Oc2cc(F)ccc2C#N)cc1C [Example 84],,
1.35^[a],CCN(C)C=Nc1cc(C)c(Oc2ccccc2C(=O)OC)cc1Cl [Example 77],,
2.26^[a],CCN(C)C=Nc1cc(C)c(Oc2ccccc2C(C)C)cc1Br [Example 98],,
1.63^[a],CCN(C)C=Nc1cc(C)c(Oc2ccccc2Br)cc1C [Example 83],,
1.58^[a],CCN(C)C=Nc1cc(C)c(Oc2ccccc2F)cc1N(C)C [Example 81],,
1.84^[a],CCN(C)C=Nc1cc(C)c(Oc2ccccc2C2CC2)cc1Br [Example 94],,
1.69^[a],C=Cc1ccccc1Oc1cc(Cl)c(N=CN(C)CC)cc1C [Example 89],,
1.81^[a],CCN(C)C=Nc1cc(C)c(Oc2ccccc2C(F)(F)F)cc1Cl [Example 90],,
1.75^[a],CCN(C)C=Nc1cc(C)c(Oc2cccc(F)c2C)cc1Br [Example 95],,
1.21^[a],CCN(C)C=Nc1cc(C)c(Oc2ccccc2)cc1C(=O)N(C)C [Example 87],,
1.82^[a],CCN(C)C=Nc1cc(C)c(Oc2ccccc2SC)cc1Br [Example 103],,
0.91^[a],CCN(C)C=Nc1cc(C)c(Oc2ccccc2S(C)(=O)=O)cc1C [Example 122],,
1.66^[a],Cc1cc(Oc2ccccc2Br)c(C)cc1N=CN(C)C [Example 68],,

# Continued, compound first:
Structure (SMILES),LogP [3],LogP [1],other results
CCN(C)C=Nc1cc(C)c(Oc2ccccc2C)cc1OC [Example 15],,1.60^[a];,LogP [2]: 5.53^[b]
CCN(C)C=Nc1cc(C)c(Oc2ccccc2I)cc1C(F)F [Example 41],,1.90^[a],
CCN(C)C=Nc1cc(C)c(Oc2ccccc2C#N)cc1C(F)F [Example 38],,1.55^[a],
CCN(C)C=Nc1cc(C)c(Oc2ccccc2C2CC2)cc1Cl [Example 74],1.78^[a],,
CCN(C)C=Nc1cc(C)c(Oc2ccccc2N(C)C)cc1Br [Example 100],1.07^[a],,
CCN(C)C=Nc1cc(C)c(Oc2ccccc2)cc1C#N [Example 13],,1.58^[a];,LogP [2]: 3.78^[b]
CCN(C)C=Nc1cc(C)c(Oc2ccccc2Cl)cc1C(F)(F)F [Example 23],,2.08^[a],
"CCN(C)C=Nc1cc(C)c(Oc2ccccc2F)cc1C1CC1 [Example 34, N′-[2-cyclopropyl-4-(2-fluorophenoxy)-5-methyl-phenyl]-N-ethyl-N-methyl-formamidine]",,,"chromatographic logP (reversed phase HPLC column, method [a]: LC-UV, acidic range, 0.1% formic acid in water and acetonitrile as eluent): 1.69"
CCN(C)C=Nc1cc(C)c(Oc2ccccc2C)cc1C(F)(F)F [Example 28],,1.96^[a],
CCc1cc(N=CN(C)CC)c(C)cc1Oc1ccccc1C#N [Example 108],1.59^[a],,
CCN(C)C=Nc1cc(C)c(Oc2ccccc2Cl)cc1C(F)F [Example 39],,1.88^[a],
C=C(C)c1cc(Oc2ccccc2F)c(C)cc1N=CN(C)CC [Example 97],1.66^[a],,
CCN(C)C=Nc1cc(C)c(Oc2ccccc2C)cc1C(F)F [Example 6],,1.72^[a],
CCN(C)C=Nc1cc(C)c(Oc2ccccc2F)cc1C(F)(F)F [Example 24],,1.89^[a],
CCN(C)C=Nc1cc(C)c(Oc2ccccc2)cc1C1CC1 [Example 113],1.58^[a],,
CCN(C)C=Nc1cc(C)c(Oc2ccccc2)cc1N(C)C [Example 82],1.58^[a],,
Cc1cc(Oc2ccccc2)c(I)cc1N=CN(C)C [Example 32],,1.61^[a];,LogP [2]: 4.51^[b]
Cc1cc(N=CN(C)C)c(Cl)cc1Oc1ccccc1Br [Example 37],,1.55^[a];,LogP [2]: 4.47^[b]
CCN(C)C=Nc1cc(Cl)c(Oc2cccc(Cl)c2F)cc1C [Example 50],,1.83^[a],
Cc1cc(N=CN(C)C(C)C)c(Br)cc1Oc1ccccc1F [Example 63],,1.63^[a],
CCN(C)C=Nc1cc(C)c(Oc2ccccc2C#N)cc1C(F)(F)F [Example 27],,1.63^[a],
CCN(C)C=Nc1cc(C)c(Oc2cccc(Cl)c2)cc1C [Example 1],,1.86^[a],
CCN(C)C=Nc1cc(Br)c(Oc2ccccc2I)cc1C [Example 47],,1.92^[a],
